How the values were obtained:
[1] = biological target: T1, Palmitoleoyl-protein carboxylesterase NOTUM (Homo sapiens, UniProt Q6P988); assay: Inhibition of human notum using OTPS as substrate incubated for 16 hrs by fluorescent based assay
T1 sequence (Q6P988 whole entry): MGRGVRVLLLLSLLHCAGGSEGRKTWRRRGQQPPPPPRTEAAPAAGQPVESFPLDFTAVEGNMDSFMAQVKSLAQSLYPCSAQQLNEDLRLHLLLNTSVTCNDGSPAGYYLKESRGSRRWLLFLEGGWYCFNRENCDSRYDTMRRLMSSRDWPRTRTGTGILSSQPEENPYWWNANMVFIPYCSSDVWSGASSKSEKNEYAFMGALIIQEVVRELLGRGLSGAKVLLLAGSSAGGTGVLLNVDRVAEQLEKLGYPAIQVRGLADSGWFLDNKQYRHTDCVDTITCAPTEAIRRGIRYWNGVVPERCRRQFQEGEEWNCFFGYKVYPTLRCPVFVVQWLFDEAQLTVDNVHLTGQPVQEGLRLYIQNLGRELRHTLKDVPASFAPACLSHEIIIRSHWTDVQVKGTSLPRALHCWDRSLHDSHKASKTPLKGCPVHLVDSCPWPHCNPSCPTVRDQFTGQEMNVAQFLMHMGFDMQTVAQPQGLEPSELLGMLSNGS

Adenosine receptor A1 = biological target: T2, Adenosine receptor A1 (Homo sapiens, UniProt P30542); assay: Binding affinity to human A1 adenosine receptor assessed as inhibition constant
T2 sequence (P30542 whole entry): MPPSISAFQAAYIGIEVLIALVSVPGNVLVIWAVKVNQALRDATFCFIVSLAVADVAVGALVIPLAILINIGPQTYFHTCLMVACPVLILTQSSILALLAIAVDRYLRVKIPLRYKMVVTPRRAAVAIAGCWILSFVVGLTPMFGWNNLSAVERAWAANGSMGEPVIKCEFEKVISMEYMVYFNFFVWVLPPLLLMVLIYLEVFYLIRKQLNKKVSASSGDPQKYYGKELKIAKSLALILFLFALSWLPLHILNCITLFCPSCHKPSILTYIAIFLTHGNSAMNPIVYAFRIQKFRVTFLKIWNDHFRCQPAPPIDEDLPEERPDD

Adenosine receptor A3 [2] = biological target: T3, Adenosine receptor A3 (Homo sapiens, UniProt P0DMS8); assay: Binding affinity to human A3 adenosine receptor assessed as inhibition constant
T3 sequence (P0DMS8 whole entry): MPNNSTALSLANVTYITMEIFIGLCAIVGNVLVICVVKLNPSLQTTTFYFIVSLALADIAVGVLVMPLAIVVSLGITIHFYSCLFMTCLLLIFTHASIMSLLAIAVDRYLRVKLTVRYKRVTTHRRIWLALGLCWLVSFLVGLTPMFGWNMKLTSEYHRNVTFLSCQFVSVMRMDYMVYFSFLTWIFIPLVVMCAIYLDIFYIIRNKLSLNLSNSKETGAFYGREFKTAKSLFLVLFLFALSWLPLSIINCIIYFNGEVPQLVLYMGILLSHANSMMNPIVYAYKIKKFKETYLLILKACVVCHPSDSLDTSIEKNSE

Adenosine receptor A3 [3] = biological target: T3, Adenosine receptor A3; assay: Displacement of [1251]AB-MEC from human A3 receptor assessed as inhibition constant
Adenosine receptor A2b [4] = biological target: T4, Adenosine receptor A2b (Homo sapiens, UniProt P29275); assay: Displacement of [3H]DPCPX to human A2B adenosine receptor derived from HEK cells assessed as inhibition constant
T4 sequence (P29275 whole entry): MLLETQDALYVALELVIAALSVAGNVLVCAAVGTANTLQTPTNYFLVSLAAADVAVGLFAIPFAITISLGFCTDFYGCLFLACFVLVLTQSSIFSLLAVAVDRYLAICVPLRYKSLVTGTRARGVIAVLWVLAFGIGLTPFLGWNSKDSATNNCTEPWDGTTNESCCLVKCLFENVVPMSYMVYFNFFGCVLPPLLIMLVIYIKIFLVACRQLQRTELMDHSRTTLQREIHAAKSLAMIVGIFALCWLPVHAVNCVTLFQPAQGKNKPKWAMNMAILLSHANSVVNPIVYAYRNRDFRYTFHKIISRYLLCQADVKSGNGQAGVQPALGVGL

Adenosine receptor A2b [5] = biological target: T4, Adenosine receptor A2b; assay: Inhibition of human A2b adenosine receptor

`Cn1c(=O)c2c(ncn2C)n(C)c1=O` was tested. Which IC50 [1] did it give?
Its IC50 is 19000 nM.

How did the Ki (Adenosine receptor A1) turn out when `CCCn1c(=O)c2nc(-c3ccc(S(=O)(=O)NCCN(C)C)cc3)[nH]c2n(CCC)c1=O` was run?
Its Ki is 6.5 nM.

With `CCCn1c(=O)c2nc(-c3ccc(OCC(N)=O)cc3O)[nH]c2n(CCC)c1=O` as the molecule, how does the Ki (Adenosine receptor A1) read?
Its Ki is 6.5 nM.

`CC[C@@H]1Cn2c(c3nc(-c4cc(Cl)cc(Cl)c4Cl)nc-3n(C)c2=O)N1` was tested. Which Ki (Adenosine receptor A3 [2]) did it give?
The Ki was 0.433 nM.

For `CCCCn1c(=O)c2c(ncn2[C@@H]2O[C@H](C(=O)NC)[C@@H](O)[C@H]2O)n(CCCC)c1=O` [5-(1,3-Dibutyl-2,6-dioxo-1,2,3,6-tetrahydro-purin-7-yl)-3,4-dihydroxy-tetrahydro-furan-2-carboxylic acid methylamide], which Ki (Adenosine receptor A3 [3]) is on record?
Its Ki is 229 nM.

How did the Ki (Adenosine receptor A2b [4]) turn out when `CCCn1c(=O)[nH]c2nc(-c3cnn(Cc4noc(-c5ccc(Cl)cc5)n4)c3)[nH]c2c1=O` [8-(1-((5-(4-chlorophenyl)-1,2,4-oxadiazol-3-yl)methyl)-1H-pyrazol-4-yl)-1-propyl-1H-purine-2,6(3H,7H)-dione] was run?
Its Ki is 5.5 nM.

How did the Ki (Adenosine receptor A1) turn out when `CCCn1c(=O)c2nc(C3CC4CC3C3OC43)[nH]c2n(CCC)c1=O` (stereo not drawn) [8-(3-Oxa-tricyclo[3.2.1.0*2,4*]oct-6-yl)-1,3-dipropyl-3,7-dihydro-purine-2,6-dione] was run?
Its Ki is 0.95 nM.

For `Cn1cnc2c1c(=O)[nH]c(=O)n2C` [theobromine], which IC50 (Adenosine receptor A2b [5]) is on record?
The IC50 was 130000 nM.
